Non-standard residues stand in square brackets, D forms with d. Residues, ends and D or L forms follow the SMILES beside them. dPhe(4-NH2) = Nc1ccc(C[C@@H](N)C(=O)O)cc1; dPhe(4-Cl) = N[C@H](Cc1ccc(Cl)cc1)C(=O)O; Phe(4-NH2) = Nc1ccc(C[C@H](N)C(=O)O)cc1; d2Nal = N[C@H](Cc1ccc2ccccc2c1)C(=O)O; Lys(iPr) = CC(C)NCCCC[C@H](N)C(=O)O; d3Pal = N[C@H](Cc1cccnc1)C(=O)O
Legend:
[1] = tested on: ovulation in mature female Sprague-Dawley rats; test: standard in vivo rat anti-ovulation test; conditions: injected in bacteriostatic water at about noon on the day of proestrus
Description: The betide is assayed in vivo to determine its effectiveness to prevent ovulation in female rats. Inthis test, a specified number of mature female Sprague-Dawley rats, e.g. five to ten, each having a body weight from 225 to 250 grams, are injected with a specified microgram dosage of the betide in bacteriostatic water at about noon on the day of proestrus. Proestrus is the […]. A separate female rat group is used as a control to which the peptide is not administered. Each of the control female rats ovulates on the evening of proestrus; the number of the rats treated which ovulate is recorded.

[2] = hydrophilicity by RP-HPLC retention; assay type: physicochemical; conditions: for hydrophilicity compared to Acyline: RP-HPLC

| Molecule | anti-ovulatory activity: rats ovulating out of rats treated ([1]; dosage 2.5 μg) | anti-ovulatory activity: rats ovulating out of rats treated ([1]; dosage 1 μg) | anti-ovulatory activity: rats ovulating out of rats treated ([1]; dosage 5 μg) | other results |
| --- | --- | --- | --- | --- |
| CC(=O)Nc1ccc(C[C@H](NC(=O)[C@H](CO)NC(=O)C(NC(=O)c2ccncc2)NC(=O)[C@@H](Cc2ccc(Cl)cc2)NC(=O)[C@@H](Cc2ccc3ccccc3c2)NC(C)=O)C(=O)N[C@H](Cc2ccc(NC(C)=O)cc2)C(=O)N[C@@H](CC(C)C)C(=O)N[C@@H](CCCCNC(C)C)C(=O)N2CCC[C@H]2C(=O)N[C@H](C)C(N)=O)cc1 (single isomer, unassigned) [Betide No. 1A first isomer, Ac-β-D-2Nal-D-4Cpa-γ-(4-pyridyl)D/L-amidoGly-Ser-Aph(acetyl)-D- Aph(acetyl)-Leu-Lys(isopropyl)-Pro-D-Ala-NH2] | only the second isomer was bioactive |  |  | anti-ovulatory activity: rats ovulating out of rats treated ([1]; dosage 10 μg): 3 out of 7; hydrophilicity compared to Acyline [2]: more hydrophilic than Acyline |
| CC(=O)Nc1ccc(C[C@H](NC(=O)[C@H](CO)NC(=O)C(NC(=O)c2ccncc2)NC(=O)[C@@H](Cc2ccc(Cl)cc2)NC(=O)[C@@H](Cc2ccc3ccccc3c2)NC(C)=O)C(=O)N[C@H](Cc2ccc(NC(C)=O)cc2)C(=O)N[C@@H](CC(C)C)C(=O)N[C@@H](CCCCNC(C)C)C(=O)N2CCC[C@H]2C(=O)N[C@H](C)C(N)=O)cc1 (single isomer, unassigned) [Betide No. 1A second isomer, Ac-β-D-2Nal-D-4Cpa-γ-(4-pyridyl)D/L-amidoGly-Ser-Aph(acetyl)-D- Aph(acetyl)-Leu-Lys(isopropyl)-Pro-D-Ala-NH2] | 2 out of 8 |  |  | anti-ovulatory activity: rats ovulating out of rats treated ([1]; dosage 10 μg): 0 out of 8; hydrophilicity compared to Acyline [2]: more hydrophilic than Acyline |
| CC(=O)Nc1ccc(C[C@H](NC(=O)[C@H](CO)NC(=O)C(NC(=O)[C@@H](Cc2ccc(Cl)cc2)NC(=O)[C@@H](Cc2ccc3ccccc3c2)NC(C)=O)N(C)C(=O)c2cccnc2)C(=O)N[C@H](Cc2ccc(NC(C)=O)cc2)C(=O)N[C@@H](CC(C)C)C(=O)N[C@@H](CCCCNC(C)C)C(=O)N2CCC[C@H]2C(=O)N[C@H](C)C(N)=O)cc1 (single isomer, unassigned) [Betide No. 1B first isomer, Ac-β-D-2Nal-D-Cpa-γ-(3-pyridyl)methylD/L-amidoGly-Ser-Aph(acetyl)-D-Aph(acetyl)-Leu-Lys(isopropyl)-Pro-D-Ala-NH2] | only the second isomer was bioactive |  |  | hydrophilicity compared to Acyline [2]: more hydrophilic than Acyline |
| CC(=O)Nc1ccc(C[C@H](NC(=O)C(NC=O)NC(=O)[C@@H](Cc2cccnc2)NC(=O)[C@@H](Cc2ccc(Cl)cc2)NC(=O)[C@@H](Cc2ccc3ccccc3c2)NC(C)=O)C(=O)N[C@H](Cc2ccc(NC(C)=O)cc2)C(=O)N[C@@H](CC(C)C)C(=O)N[C@@H](CCCCNC(C)C)C(=O)N2CCC[C@H]2C(=O)N[C@H](C)C(N)=O)cc1 (single isomer, unassigned) [Betide No. 2B first isomer, Ac-D-2Nal-D-4Cpa-D-3Pal-D/L-Agl(formyl)-Aph(Ac)-D-Aph(Ac)-Leu-Lys(isopropyl)-Pro-D-Ala-NH2] |  | 2 out of 8 | 0/8 | anti-ovulatory activity: rats ovulating out of rats treated ([1]; dosage 0.5 μg): 4 out of 5 |
| CC(=O)Nc1ccc(C[C@H](NC(=O)C(NC=O)NC(=O)[C@@H](Cc2cccnc2)NC(=O)[C@@H](Cc2ccc(Cl)cc2)NC(=O)[C@@H](Cc2ccc3ccccc3c2)NC(C)=O)C(=O)N[C@H](Cc2ccc(NC(C)=O)cc2)C(=O)N[C@@H](CC(C)C)C(=O)N[C@@H](CCCCNC(C)C)C(=O)N2CCC[C@H]2C(=O)N[C@H](C)C(N)=O)cc1 (single isomer, unassigned) [Betide No. 2B other isomer, Ac-D-2Nal-D-4Cpa-D-3Pal-D/L-Agl(formyl)-Aph(Ac)-D-Aph(Ac)-Leu-Lys(isopropyl)-Pro-D-Ala-NH2] |  | 6 out of 8 | 0/8 |  |
| CC(=O)Nc1ccc(C[C@H](NC(=O)[C@H](CO)NC(=O)[C@@H](Cc2cccnc2)NC(=O)[C@@H](Cc2ccc(Cl)cc2)NC(=O)C(NC(C)=O)N(C)C(=O)c2ccc3ccccc3c2)C(=O)N[C@H](Cc2ccc(NC(C)=O)cc2)C(=O)N[C@@H](CC(C)C)C(=O)N[C@@H](CCCCNC(C)C)C(=O)N2CCC[C@H]2C(=O)N[C@H](C)C(N)=O)cc1 (single isomer, unassigned) [Betide No. 3C first isomer, Ac-D/L-Agl(methyl,2-naphthoyl)-D-4Cpa-D-3Pal-Ser-Aph(acetyl)-D-Aph(acetyl)-Leu-Lys(isopropyl)-Pro-D-Ala-NH2] | fully active | 2 out of 8 |  |  |
| CC(=O)Nc1ccc(C[C@H](NC(=O)[C@H](CO)NC(=O)[C@@H](Cc2cccnc2)NC(=O)[C@@H](Cc2ccc(Cl)cc2)NC(=O)C(NC(C)=O)N(C)C(=O)c2ccc3ccccc3c2)C(=O)N[C@H](Cc2ccc(NC(C)=O)cc2)C(=O)N[C@@H](CC(C)C)C(=O)N[C@@H](CCCCNC(C)C)C(=O)N2CCC[C@H]2C(=O)N[C@H](C)C(N)=O)cc1 (single isomer, unassigned) [Betide No. 3C second isomer, Ac-D/L-Agl(methyl,2-naphthoyl)-D-4Cpa-D-3Pal-Ser-Aph(acetyl)-D-Aph(acetyl)-Leu-Lys(isopropyl)-Pro-D-Ala-NH2] |  |  | 6 out of 8 |  |
| CC(=O)Nc1ccc(C[C@H](NC(=O)[C@H](CO)NC(=O)[C@@H](Cc2cccnc2)NC(=O)[C@@H](Cc2ccc(Cl)cc2)NC(=O)[C@@H](Cc2ccc3ccccc3c2)NC(C)=O)C(=O)N[C@H](Cc2ccc(NC(C)=O)cc2)C(=O)N[C@@H](CC(C)C)C(=O)N[C@@H](CCCCNC(C)C)C(=O)N2CCC[C@H]2C(=O)N[C@H](C)C(N)=O)cc1 [Acyline, Ac-D-2Nal-D-4Cpa-D-3Pal-Ser-Aph(Ac)-D-Aph(Ac)-Leu-ILys-Pro-D-Ala-NH2, reference compound] (Ac-[d2Nal][dPhe(4-Cl)][d3Pal]S[Phe(4-NH2)](Ac)[dPhe(4-NH2)](Ac)L[Lys(iPr)]P[dA]-NH2) |  |  |  | RP-HPLC retention (hydrophilicity) ([2]; gradient 40% to 75% Buffer B over 30 minutes, Buffer A TEAP pH 7.3, Buffer B 60% CH3CN and 40% Buffer A): 24.1 min |
| Ac-D-2Nal-(4Cl)D-Phe-D-3Pal-Ser-(4-acetyl-aminobenzyl)D/L-amidoGly-D-Aph(acetyl)-Leu-Lys(isopropyl)-Pro-D-Ala-NH2 [Betide No. 4] |  |  | 2 out of 8 |  |
| Ac-D-2Nal-(4Cl)D-Phe-D-3Pal-Ser-Aph(acetyl)-D-Aph(acetyl)-Leu-Lys(isopropyl)-Pro-D/L-Agl(methyl)-NH2 [Example 8B] | 0/8 |  |  |  |
| Ac-D-2Nal-D-4Cpa-D-3Pal-Ser-Aph(acetyl)-D-Aph(acetyl)-D/L-Agl(isobutyryl)- Lys(isopropyl)-Pro-D-Ala-NH2 [Betide No. 6A] | 0 out of 8 | 6 out of 8 |  | anti-ovulatory activity: rats ovulating out of rats treated ([1]; dosage 10 μg): 0 out of 8 |
| Ac-D-2Nal-D-4Cpa-D-3Pal-Ser-Aph(acetyl)-D-Aph(acetyl)-D/L-Agl(methyl,acetyl)-Lys(isopropyl)-Pro-D-Ala-NH2 [Betide No. 6] | 2 out of 8 |  |  | anti-ovulatory activity: rats ovulating out of rats treated ([1]; dosage 10 μg): 0 out of 8 |
| Ac-D-2Nal-D-4Cpa-D-3Pal-Ser-Aph(acetyl)-D-Aph(acetyl)-Leu-D/L-Agl(guanidinoacetyl)-Pro-D-Ala-NH2 [Betide No. 7B] | 1 out of 7 | 3 out of 4 | 0/4 |  |
| Ac-D-2Nal-D-Cpa-D-3Pal-Ser-Aph(acetyl)-D-Aph(acetyl)-D/L-Agl(acetyl)-Lys(isopropyl)-Pro-D-Ala-NH2 [Betide No. 6C] |  |  |  | anti-ovulatory activity: rats ovulating out of rats treated ([1]; dosage 0.5 μg): 4 out of 8; anti-ovulatory activity: rats ovulating out of rats treated ([1]; dosage 10 μg): 0 out of 8 |
| Ac-D-2Nal-D-Cpa-D-3Pal-Ser-Aph(acetyl)-D-Aph(acetyl)-D/L-Agl(methyl,isobutyryl)-Lys(isopropyl)-Pro-D-Ala-NH2 [Betide No. 6B] | 0 out of 8 | 2 out of 8 |  |  |
| Ac-β-D-2Nal-(4Cl)D-Phe-D-3Pal-Ser-(4-acetyl-aminobenzyl,methyl)D/L-amidoGly-D-Aph(acetyl)-Leu-Lys(isopropyl)-Pro-D-D-Ala-NH2 [Betide No. 4A] | 0/8 | 5 out of 8 |  |  |
| Ac-β-D-2Nal-(4Cl)D-Phe-D-3Pal-Ser-Aph(acetyl)-γ-(4-acetamidophenyl)D/L-amidoGly-Leu-Lys(isopropyl)-Pro-D-Ala-NH2 [Betide No. 5] | 2 out of 8 |  | 1 out of 8 |  |
| Ac-γ-(2-naphthoyl)amidoGly-4Cl-D-Phe-D-3Pal-Ser-Aph(atz)-D-Aph(atz)- Leu-Lys(isopropyl)-Pro-D-Ala-NH2 [Betide No. 3A first isomer] | 0/8 | 5 out of 8 |  |  |
| Ac-γ-(2-naphthoyl)amidoGly-4Cl-D-Phe-D-3Pal-Ser-Aph(atz)-D-Aph(atz)- Leu-Lys(isopropyl)-Pro-D-Ala-NH2 [Betide No. 3A second isomer] | 0/3 | 4 out of 8 |  |  |

— patent US5807983A, “GNRH antagonist betides” (The Salk Institute for Biological Studies, priority 1996, dated 1998)
